In publication PMC8472513, “(−)-6-epi-Artemisinin, a Natural Stereoisomer of (+)-Artemisinin in the Opposite Enantiomeric Series, from the Endemic Madagascar Plant Saldinia proboscidea, an Atypical Source” (Molecules, 2021):
Where two headings read alike, the source gives them in different places.

Experiments:
MCF breast cancer cells = conditions: read-out: IC50, antiproliferative activity, cited from earlier work
SARS-CoV-2 [1] = test: microbe, parasite or virus in culture; format: cell-based; conditions: Vero E6 cells; for EC50: MOI 0.01, 24 h post infection, read-out: EC50, SARS-CoV-2 inhibitory assay
Vero E6 cells = conditions: read-out: CC50, cytotoxicity against Vero E6 cells; CCK8
SARS-CoV-2 [2] = tested on: SARS-CoV-2; parameters: method as in PMID 32786284; conditions: read-out: EC50, inhibitory effect on SARS-CoV-2; cited from earlier work
[3] = tested on: W2 apoptotic competent and D3 apoptotic deficient mouse epithelial cell lines; test: apoptosis induction assay (MTT, W2 vs D3 cells); format: cell-based; conditions: 48 h
Description: However, the antiproliferative activity of different artemisinin isomers has never been studied in the past. […] To address this subject, we performed an apoptosis induction assay with compound 2 in order to evaluate the effect of the change in configurations on this activity. To develop a cell-based assay specific for the identification of apoptosis-inducing compounds that are potential antiproliferative agents, we used two genetically engineered mouse epithitial cell lines: W2 apoptotic competent and D3 apoptotic deficient. Compounds that have the capacity to kill W2 and not D3 cells are consistent with proapoptotic, potentially antiproliferative activity. Compounds that meet these criteria activate apoptosis upstream in a pathway that requires Bax and Bak. […]
Apoptosis induction in the presence of compound 2 was carried out as follows. […] Cell viability was determined using a modification of the MTT assay, where the reduction of yellow tertazolium salt (MTT-3-(4,5-Dimethylthiazol-2-yl)-2,5) to purple formazan indicates mitochondrial activity, and thus cell viability. […] After 30 min incubation at 37 °C with shaking, absorbance was read at 570 nm on a Spectra MAX 250 (Molecular Devices) plate reader. Differential growth from time 0 to 48 h was calculated. […]

haem polymerization = haem polymerization inhibitory activity (HPIA) assay; format: biochemical; conditions: haematin, pH 2.6, 37 °C, 24 h; read-out: IC50, inhibition of haem polymerization formation
Description: Antimalarial activity was tested to (−)-6-epi-artemisinin (2) based on inhibition of haem polymerization. Haem is a by-product of haemoglobin digestion […]. It is potentially toxic to biological membranes and parasite enzymes, and it is thus sequestered in the form of an insoluble crystalline polymer, haemozoin or malaria pigment. Identifying molecules that interfere with haem polymerization is the basic principle of the assay. Haem can be polymerized in vitro, in the absence of proteins, from a solution of haematin at 70 °C or 37 °C at acidic pH. In vitro quantification of haem polymerization allows the identification of molecules with haem polymerization inhibitory activity (HPIA) and the assessment of their HPIA, relative to that of standard antimalarials like chloroquine.
100 microliters of a 0.5 mM solution of haematin, previously dissolved in 0.1 M NaOH, was distributed in 96-well U-bottomed microplates. […] The DMSO-soluble fraction (fraction II) was collected, and the pellet, consisting of a pure precipitate of haematin, was dissolved in 0.1 M NaOH (fraction III) for spectroscopic quantification. […] The amount of haematin was determined by measuring the absorbance at 405 nm using a microtiter plate reader. […]
Statistical analysis. […] Data were analyzed by Excel Microsoft. […]

in vitro = conditions: African green monkey, CC50, cytotoxicity against Vero E6 cells, CCK8

For `C[C@H]1[C@@H](O)O[C@@H]2O[C@@]3(C)CC[C@H]4[C@H](C)CC[C@@H]1[C@@]24OO3` [dihydroartemisinin], the IC50 (MCF breast cancer cells; these same cells (MCF)) is listed as 5.27 ± 0.01 µM.
For `CC1CCC2C(C)C(=O)OC3OC4(C)CCC1C32OO4` (stereo not drawn) [compound 3, 9 epimer of 2], the “inhibition of growth of SARS-CoV-2 (in words)” value (“inhibition” for short) (SARS-CoV-2 [1]) was “inhibited the growth of SARS-CoV-2”, the EC50 (SARS-CoV-2 [1]) was 54 ± 0.27 µM and the CC50 (Vero E6 cells) was greater than 200 µM.
For `C[C@@H]1CC[C@H]2[C@@H](C)C(=O)O[C@@H]3O[C@@]4(C)CC[C@@H]1[C@]32OO4` [compound 1, (+)-artemisinin], the “inhibition” value (SARS-CoV-2 [1]) is listed as “inhibited the growth of SARS-CoV-2”, the EC50 (SARS-CoV-2 [2]) is listed as 64 µM and the IC50 (MCF breast cancer cells; MCF breast cancer cells) is listed as 9.13 ± 0.07 µM.
Compound `CC1CCC2C(C)C(=O)OC3OC4(C)CCC1C32OO4` (single isomer, unassigned; (-)) [compound 2, (−)-6-epi-artemisinin] has an IC50 ([3]; Mus musculus, Epithelial cell, read-out: IC50, induction of apoptosis, W2/D3 cells, 48 h, MTT) of 10 µM, an IC50 ([3]; read-out: IC50, induction of apoptosis, W2/D3 cells, MTT) of 11 ± 0.71 µM and an EC50 (SARS-CoV-2 [1]; Severe acute respiratory syndrome coronavirus 2, Vero C1008, 24 h) of 49 ± 0.32 µM. The “inhibition” value (SARS-CoV-2 [1]) was “inhibited the growth of SARS-CoV-2”, the IC50 (haem polymerization) was 0.0035 ± 2e-06 µM and the CC50 (Vero E6 cells) was greater than 250 µM. For the same compound, the CC50 (in vitro) was greater than 200 µM.
For `CCN(CC)CCCC(C)Nc1ccnc2cc(Cl)ccc12` (stereo not drawn) [chloroquine, reference compound], the IC50 (haem polymerization) was 0.018 ± 1e-06 µM.
